One data set deals with MT-2 cells. Kind of data set: In vitro cytotoxicity, XTT. Format: cell-based. The procedure:
(§1) The in vitro cytotoxicity for MT-2 cells of the compounds was determined in 96-well plates using the XTT dye to measure cell viability in the absence of virus. Ten μl of 5% TRITON X-100 were added to the wells corresponding to positive controls (“P”) and 10 μl medium was added to wells corresponding to negative controls (“N”). The percent cytotoxicity was calculated using the following formula: % cytotoxicity=[(E−N)/(P−N)]×100%, wherein “E” represents experimental data in the presence of compounds. The concentration corresponding to 50% cytotoxicity (CC50) for MT-2 cells was calculated using the Calcusyn computer program. The selectivity index (S.I.=CC50/IC50) for each compound was calculated.
A general note: Tetrazolium dyes change colour on reduction, which living cells bring about.

Data set [1] relates to H9/HIV-1IIIB cells and MT-2 cells. Briefly: cells. The class given is cell-based. The following applies: for IC50 ± SD Cell fusion: 37° C., 2 hours; for Inhibitory activity on HIV-1-mediated cell fusion (in words): no concentration stated; for IC50: Human immunodeficiency virus 1, MT2, 2 h, read-out: IC50 ± SD Cell fusion. As to the method:
A dye transfer assay was used for detection of HIV-1-mediated cell fusion as described in Jiang et al., Nature, 365, 113 (1993). H9/HIV-1IIIB cells were labeled with a fluorescent reagent, 2′,7′-bis-(2-carboxyethyl)-5-and-6-carboxyfluorescein acetoxyethyl ester (BCECF-AM), (Molecular Probes, Inc., Eugene, Oreg.) and incubated with MT-2 cells (ratio=1:10) in a 96-well plate at 37° C. for 2 hours in the presence or absence of peptides or compounds tested. The fused and unfused BCECF-labeled HIV-1 infected cells were counted under an inverted fluorescence microscope (Zeiss, Germany) with an eyepiece micrometer discs. The percentage of inhibition of cell fusion was calculated as described in Jiang et al., 1993, Nature, 365, 113.
A dye transfer assay was used for detection of HIV-1 mediated cell fusion as described in Jiang, S., K. Lin, N. Strick, and A. R. Neurath, 1993, Inhibition of HIV-1 infection by a fusion domain binding peptide from HIV-1 envelope glycoprotein gp41, Biochem. Biophys. Res. Commun., 195, 533-538.
H9/HIV-1IIIB cells were labeled with a fluorescent reagent, 2′,7′-bis-(2-carboxyethyl)-5-and-6-carboxyfluorescein acetoxyethyl ester (BCECF-AM) (Molecular Probes, Inc., Eugene, Oreg.) and then incubated with MT-2 cells (ratio=1:10) in 96-well plates at 37° C. for 2 hours in the presence or absence of the compounds tested. The fused and unfused BCECF-labeled HIV-1 infected cells were counted under an inverted fluorescence microscope (Zeiss, Germany) with an eyepiece micrometer disc. The percentage of inhibition of cell fusion and the IC50 values were calculated as described in Jiang et al., (1993), Biochem. Biophys. Res. Commun., 195, 533-538.

In data set [2] the target is T1, N-36/C-34 complex (HIV-1 gp41 core) (Human immunodeficiency virus type 1 group M subtype B, UniProt P04578).
T1 construct: Peptides derived from the NHR and CHR regions of gp41, designated N- and C-peptides; made in house; host or cells: chemical synthesis (solid-phase FMOC)
Kind of data set: biochemical. The class given is binding. The following applies: for IC50 ± SD NC-1 binding: N-36 2 μM preincubated with compound, then C-34 2 μM; for Inhibitory activity on complex formation by N-36 and C-34 (in words): no concentration stated. As to the method: For detection of peptide complexes, a direct and a sandwich ELISA were used. In the direct ELISA, the N- and C-peptides were mixed at equimolar concentration in PBS and diluted in coating buffer. Then, the peptide complexes were directly coated onto the wells of microplate. In the sandwich ELISA, the plate was coated with IgG (10 μg/ml) purified from rabbit antisera directed against N36(L6)C34, followed by the addition of the peptide complexes formed by mixing N- and C-peptides in PBS in equimolar concentrations. To screen for antiviral agents, compounds were pre-incubated with N-peptides at 37° C. for 30 minutes before mixing with the C-peptides. The binding of the peptide complexes to the antibodies was then detected as described above.
The percentage of inhibition by the compounds of the binding of NC-1 to the peptide complexes was calculated as described in Jiang, S., K. Lin, and A. R. Neurath, 1991, “Enhancement of human immunodeficiency virus type-1 (HIV-1) infection by antisera to peptides from the envelope glycoproteins gp120/gp41”, J. Exp. Med., 174, 1557-1563.
A sandwich ELISA was established to screen for compounds that interfere with the formation of the N-36/C-34 complex. N-36 (2 μM) was preincubated with compounds at graded concentrations at 37° C. for 30 minutes, followed by the addition of C-34 (2 μM). After incubation at 37° C. for 30 minutes, the mixture was added to wells of a 96-well polystyrene plate (Immulon I, Dynatech Laboratories, Inc., Chantilly, Va.) which were precoated with IgG (10 μg/ml) purified from rabbit antisera directed against N36(L6)C34. […] Absorbance at 450 nm (A450) was read using an ELISA reader (Dynatech Laboratories, Inc., Chantilly, Va.). The percentage of inhibition by the compounds of the binding of NC-1 to the peptide complexes was calculated as described in Jiang S., K. Lin, and A. R. Neurath, 1991, “Enhancement of human immunodeficiency virus type-1 (HIV-1) infection by antisera to peptides from the envelope glycoproteins gp120/gp41”, J. Exp. Med., 174, 1557-1563. The concentration for 50% inhibition (IC50) was calculated using a computer program, designated Calcusyn (Chou, T.-C., 1991, “The median-effect principle and the combination index for quantitation of synergism and antagonism. In Synergism and Antagonism in Chemotherapy”, T.-C. Chou and D. C. Rideout, editors, Academic Press, San Diego, 61-102).

The target of data set [3] is T2, preformed N36/C34 complex (Human immunodeficiency virus type 1 group M subtype B, UniProt P04578).
T2 construct: Peptides derived from the NHR and CHR regions of gp41, designated N- and C-peptides; made in house; host or cells: chemical synthesis (solid-phase FMOC)
Briefly: Control ELISA: NC-1 binding to preformed complex in the presence of compound. Also noted: species or system HIV-1. The following applies: different concentrations of compound. The text has this:
The position might be taken that ADJ-J1, selected by a sandwich ELISA, may not block the complex formation by N- and C-peptides, but instead block NC-1 binding to the complex, either due to its association with MAb NC-1 or with the N36/C34 complex. The first possibility was excluded, since the antibody-coated wells of the plastic plates were extensively washed after addition of the mixture of N36, ADS-J1 and C34 and before. addition of MAb NC-1, excluding the presence of unbound ADS-J1, which could bind to MAb NC-1. To determine whether or not ADS-J1 binds to the surface of the N36/C34 complex and blocks NC-1 binding, a control experiment was conducted in which the complex In was preformed by mixing N36 and C34 at equimolar concentrations and captured to the wells of plastic plates coated with rabbit antibody directed against N36/C34 complex. Then, the binding of MAb NC-1 to the preformed complex in the presence of ADS-J1 at different concentrations was determined.

A further data set relates to HIV-1IIIB. Briefly: HIV-1-mediated cytopathic effect (CPE), XTT. Format: cell-based. To be noted: for Selective Index (S.I.) = CC50/IC50 for CPE / IC50 ± SD CPE / selectivity ratio at 6 days: MT-2 cells; for IC50 ± SD CPE: sixth day post infection; for IC50: Human immunodeficiency virus 1, MT2, read-out: IC50 ± SD CPE; for selectivity ratio at 6 days: human, read-out: Selective Index (S.I.) = CC50/IC50 for CPE. The procedure:
The inhibitory activity of the compounds was determined by a calorimetric method based on protection of cells against HIV-1-mediated CPE, as described in Jiang et al., (1991), J. Exp. Med., 174, 1557-1563. 1×10^4 MT-2 cells in 96-well plates were infected with diluted HIV-1IIIB in 200 μl RPMI 1640 medium containing 10% FBS in the presence of compounds at graded concentrations. After 1 hour, 24 hours and 4 days, half of the culture media were changed. On the sixth day post infection, an indicator, XTT tetrazolium dye (1 mg/ml; 50 μl/well; PolySciences, Inc., Warrington, Pa.), was added to the cells. After 4 hours, the soluble intracellular formazan was determined calorimetrically at 450 nm. The percent of inhibition of CPE and the IC50 values were calculated as described above.
In general terms: Protection from cytopathic effect is a common read-out in antiviral testing.

Data set [4] is described as follows: In vitro cytotoxicity, XTT. The class given is cell-based. The following applies: human; 50% cytotoxic concentration, MT-2 cells, no virus; read-out: CC50 ± SD. The procedure:
as §1

Converted amounts (≈) assume the structure as drawn. A value given as a limit tells only on which side of the number the result lay.

What is called CC50 is the concentration giving 50% cytotoxicity. What is called IC50 is the point on the concentration scale where inhibition reaches its midpoint.

T1 sequence (P04578 546-581, one chain of several): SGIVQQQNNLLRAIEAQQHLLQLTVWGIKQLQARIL
T2 sequence (P04578 546-581, one chain of several): as above

Consider “7-[6-phenylamino-4-[4-[(3,5-disulfo-8-hydroxynaphthyl)azo]-2-methoxy-5-methylphenylamino]-1,3,5-triazine-2-yl]-4-hydroxy-3-[(2-methoxy-5-sulfophenyl)azo]-2-naphthalene sulfonic acid [ADS-J1]”, for which the “CC50 ± SD” value with MT-2 cells stood at 292.16 ± 2.27 µg/mL. Besides, in data set [1], the “IC50 ± SD Cell fusion” value turned out to be 4.95 ± 1.31 µg/mL and the “Inhibitory activity on HIV-1-mediated cell fusion (in words)” value is recorded as “promising inhibitory activity”. Moreover, the “Inhibition of HIV-1-mediated cell fusion (in words)” value in data set [1] (compounds at 10 μg/ml, FIG. 13) is “completely inhibited”. Besides, the “Inhibitory activity on HIV-1-mediated cell fusion (in words)” value in data set [1] (listed as ADJ-1) is given as “most potent inhibitory activity”. Also, in data set [2], the “IC50 ± SD NC-1 binding” value turned out to be 0.73 ± 0.08 µg/mL; the “Inhibitory activity on complex formation by N-36 and C-34 (in words)” value is “promising inhibitory activity”. The “Inhibition of NC-1 detectable complex formation by N-36 and C-34 (in words)” value in data set [2] (compounds at 10 μg/ml, FIG. 13) is recorded as “completely inhibited”. The “Inhibitory activity on complex formation by N-36 and C-34 (in words)” value in data set [2] (listed as ADJ-1) was “most potent inhibitory activity”. For the same molecule, the “Blocking of NC-1 binding to the preformed N36/C34 complex” value in data set [3] is recorded as “unable to block”. Moreover, in the data set with HIV-1IIIB, the “Selective Index (S.I.) = CC50/IC50 for CPE” value (shortened to “Selective Index”) is listed as 35.24 and the “IC50 ± SD CPE” value was 8.29 ± 1.13 µg/mL. In addition, the “Inhibitory activity on HIV-1-mediated CPE (in words)” value with HIV-1IIIB (no concentration stated) is given as “promising inhibitory activity”.
`Cc1ccc(C(=O)Nc2cccc(C(=O)N/N=C/c3ccc(Br)cc3)c2)cc1` [ADS-J3]: in the data set with MT-2 cells, the “CC50 ± SD” value was found to be 24.91 ± 2.62 µg/mL (≈ 57.1 µM). In addition, the “IC50 ± SD Cell fusion” value in data set [1] was >100 µg/mL. Also, the “IC50 ± SD NC-1 binding” value in data set [2] was >100 µg/mL. Further, in the data set with HIV-1IIIB, the “Selective Index” value is “≦1.00” and the “IC50 ± SD CPE” value was >100 µg/mL.
For the molecule `COc1ccc2c(c1)CCC/C2=N\OC(=O)Nc1ccccc1-c1ccccc1` [ADS-J8], the “CC50 ± SD” value in the data set on MT-2 cells was determined as 46.83 ± 4.93 µg/mL (≈ 121 µM). Moreover, in data set [1], the “IC50 ± SD Cell fusion” value is >100 µg/mL. In addition, the “IC50 ± SD NC-1 binding” value in data set [2] is >100 µg/mL. Further, in the data set on HIV-1IIIB, the “Selective Index” value is listed as “≦1.00” and the “IC50 ± SD CPE” value is >100 µg/mL.
Turning to `CC(Nc1ccccc1Cl)c1nc2ccccc2c(=O)n1Cc1ccccc1` (centres unmarked) [ADS-J14], the CC50 in data set [4] was found to be 86.8 ± 5.79 µg/mL (≈ 223 µM). For the same molecule, the IC50 in data set [1] was > 100 µg/mL; in data set [2], > 256 µM; in the data set with HIV-1IIIB it was > 100 µg/mL. For the same molecule, the selectivity ratio at 6 days in the data set on HIV-1IIIB is ≤ 1.
In the case of `COC(=O)c1cc(C(=O)OC)cc(N(C(=O)Nc2ccc(Cl)c(Cl)c2)C(C)c2nc3ccccc3c(=O)n2Cc2ccccc2)c1` (centres unmarked) [ADS-J15], the CC50 in data set [4] was determined as 20.9 ± 0.67 µg/mL (≈ 31.8 µM). For the same molecule, the values for the IC50 (in data set [1]; in data set [2]; in the data set on HIV-1IIIB) were > 100 µg/mL, > 152 µM and > 100 µg/mL, respectively. In addition, the selectivity ratio at 6 days with HIV-1IIIB is ≤ 1.
Take `O=P(CCP(c1ccccc1)c1ccccc1)(c1ccccc1)c1ccccc1` [ADS-J16]: in data set [4], the CC50 was 28.9 ± 5.97 µg/mL (≈ 69.7 µM). For the same molecule, the IC50 is 52.3 ± 2.85 µg/mL (≈ 126 µM) in data set [1], > 241 µM in data set [2] and > 100 µg/mL in the data set on HIV-1IIIB. In the data set on HIV-1IIIB, the selectivity ratio at 6 days is ≤ 1.

(Values after patent US6596497B1, “Screening of antiviral compounds targeted to the HIV-1 gp41 core structure” (New York Blood Center, Inc., priority 1999, dated 2003).)
